Data published in patent publication US8304422B2, “Compositions and methods for inhibition of the JAK pathway” (Rigel Pharmaceuticals, Inc., priority 2007, dated 2012).
pIC50: −log10 of the molar value.

Test system: BaF3 V617F cells; UKE-1
Assay: Proliferation Assay (Cell Titer-Glo; Example 7)
Assay type: cell-based
Conditions: proliferation 72 hours, inhibit JAK2 activity, cell line (BaF3 V617F or UKE-1) not stated
Description: BaF3 V617F cells are maintained and plated in RPMI with 10% FBS. Plating density for these cells is 1×10^5 cells/mL.
UKE-1 are maintained and plated in Iscove's DMEM containing 10% FBS, 10% equine serum, 1% penicillin/streptomycin and 1 uM hydrocortisone. Plating density for these cells is 0.4×10^6 cells/mL
The cells were resuspended in a corresponding medium at a required cell density (see above). 100μ of cell suspension was added to each well of a flat bottom 96 well white plate. The compound was serially diluted in DMSO from 5 mM in 3-fold dilutions, and then diluted 1:250 in the RPMI 1640 medium containing 5% FBS and pen/strep. 100 μL of resulting 2× compound solution was added per well in duplicate and the cells were allowed to proliferate for 72 hours at 37° C.
Proliferation was measured using Cell Titer-Glo. The substrate was thawed and allowed to come to room temperature. After removal of top 100 μL of medium from each well, 100 μL of the premixed Cell Titer-Glo reagent was added to each well. The plates were mixed on an orbital shaker for three minutes to induce lysis and incubated at ambient temperature for an additional five minutes to allow the signal to equilibrate. The Luminescence was read on the Wallac Plate Reader.
The results of the ability of the compounds of the invention to inhibit JAK2 activity, when tested in the above assay, are shown in the following Table XI wherein the level of activity (i.e., the IC50) for each compound is indicated in Table XI. The compound numbers in Table XI refers to the compounds disclosed herein as being prepared by the methods disclosed herein: […]

| Compound | pIC50 |
| --- | --- |
| Cc1cc(Nc2ncc(Cl)c(Nc3cccc(S(=O)(=O)NC(C)(C)C)c3)n2)ccc1N1C[C@@H]2C[C@H]1CN2C [I-22, 5-Chloro-N4-[(3-(1,1-dimethylethylamino)sulfonyl)phenyl]-N2-[3-methyl-4-[(1S,4S)-5-methyl-2,5-diazabicyclo[2.2.1]hept-2-yl]phenyl]-2,4-pyrimidinediamine] | 6.26 |
| COc1cc(C)c(Nc2ncc(Cl)c(Nc3ccc(CCNS(=O)(=O)C4CC4)cc3)n2)c(C)c1 [II-46, 5-Chloro-N4[4-(N-cyclopropylsulfonylamino)ethylphenyl]-N2-[4-(2,6-dimethyl-methoxy)phenyl]-2,4-pyrimidinediamine] | 6.23 |
| CC(C)(C)Oc1ccc(Nc2ncc(Cl)c(Nc3ccc(CCNS(=O)(=O)C4CC4)cc3)n2)cc1 [II-47, 5-Chloro-N4[4-(N-cyclopropylsulfonylamino)ethylphenyl]-N2-[4-(2,6-dimethyl-ethoxy)phenyl]-2,4-pyrimidinediamine] | 6.31 |
| Cc1cc(OC(C)C)cc(C)c1Nc1ncc(Cl)c(Nc2ccc(CCNS(=O)(=O)C3CC3)cc2)n1 [II-48, 5-Chloro-N4[4-(N-cyclopropylsulfonylamino)ethylphenyl]-N2-[4-(2,6-dimethyl-isopropoxy)phenyl]-2,4-pyrimidinediamine] | 6.16 |
| CC1CN(CCOc2ccc(Nc3ncc(Cl)c(Nc4ccc(CCNS(=O)(=O)C5CC5)cc4)n3)cc2)CC(C)O1 (stereo not shown) [II-49] | 6.47 |
| O=S(=O)(NCCc1ccc(Nc2nc(Nc3ccc(-c4ccccc4)cc3)ncc2Cl)cc1)C1CC1 [II-58, 5-Chloro-N4[4-(N-cyclopropylsulfonylamino)ethylphenyl]-N2-[4-biphenyl]-2,4-pyrimidinediamine] | 4.79 |
| O=S(=O)(NCc1ccc(Nc2nc(Nc3ccc(N4CCN(C5CC6CCC5C6)CC4)cc3)ncc2Cl)cc1)C1CC1 (stereo not shown) [II-61, N-(4-(2-(4-(4-(bicyclo[2.2.1]heptan-2-yl)piperazin-1-yl)phenylamino)-5-chloropyrimidin-4-ylamino)benzyl)cyclopropanesulfonamide] | 5.22 |
| Cc1cnc(Nc2ccc(OCCN3CC(C)OC(C)C3)cc2)nc1Nc1ccc(CCNS(=O)(=O)C2CC2)cc1 (stereo not shown) [II-65] | 6.49 |
| Cc1cnc(Nc2ccc(-c3ccccc3)cc2)nc1Nc1ccc(CCNS(=O)(=O)C2CC2)cc1 [II-75] | 4.98 |
| Cc1cc(CNS(=O)(=O)C2CC2)cc(Nc2nc(Nc3ccc(N4CCN(C5CC6CCC5C6)CC4)cc3)ncc2Cl)c1 (stereo not shown) [II-76, N-(3-(2-(4-(4-(bicyclo[2.2.1]heptan-2-yl)piperazin-1-yl)phenylamino)-5-chloropyrimidin-4-ylamino)-5-methylbenzyl)cyclopropanesulfonamide] | 5.88 |
| Cc1cc(CNS(=O)(=O)C2CC2)cc(Nc2nc(Nc3ccc(N4CCN(C5CC6CCC5C6)CC4)cc3)ncc2C)c1 (stereo not shown) [II-77, N-(3-(2-(4-(4-(bicyclo[2.2.1]heptan-2-yl)piperazin-1-yl)phenylamino)-5-methylpyrimidin-4-ylamino)-5-methylbenzyl)cyclopropanesulfonamide] | 5.88 |
| O=S(=O)(NCc1ccc(Nc2nc(Nc3ccc(N4CCN(C5CC6CCC5C6)CC4)c(F)c3)ncc2Cl)cc1)C1CC1 (stereo not shown) [II-79, N-(4-(2-(4-(4-(bicyclo[2.2.1]heptan-2-yl)piperazin-1-yl)-3-fluorophenylamino)-5-chloropyrimidin-4-ylamino)benzyl)cyclopropanesulfonamide] | 5.50 |
| COc1c(C)cc(Nc2ncc(Cl)c(Nc3ccc(CNS(=O)(=O)C4CC4)cc3)n2)cc1Cl [II-80, 5-Chloro-N2-(3-chloro-4-methoxy-5-methylphenyl]-N4-[4-(N-cyclopropylsulfonylamino)methylphenyl]-2,4-pyrimidinediamine] | 6.73 |
| CCc1cnc(Nc2cc(C)c(OC)c(C)c2)nc1Nc1ccc(CNS(=O)(=O)C2CC2)cc1 [II-81, N4-[4-(N-Cyclopropylsulfonylamino)methylphenyl]-N2-(3,5-dimethyl-4-methoxyphenyl)-5-ethyl-2,4-pyrimidinediamine] | 5.96 |
| CCc1cnc(Nc2cc(C)c(OC)c(OC)c2)nc1Nc1ccc(CNS(=O)(=O)C2CC2)cc1 [II-82, N4-[4-(N-Cyclopropylsulfonylamino)methylphenyl]-N2-(3,4-dimethoxy-5-methylphenyl)-5-ethyl-2,4-pyrimidinediamine] | 6.10 |
| CCc1cnc(Nc2cc(C)c(OC)c(Cl)c2)nc1Nc1ccc(CNS(=O)(=O)C2CC2)cc1 [II-83, N2-(3-Chloro-4-methoxy-5-methylphenyl)-N4-[4-(N-cyclopropylsulfonylamino)methylphenyl]-5-ethyl-2,4-pyrimidinediamine] | 5.86 |

Next, values leading:

| pIC50 | Compound |
| --- | --- |
| 5.97 | CN1CCN(c2ccc(Nc3ncc(Cl)c(Nc4ccc(CCNS(=O)(=O)C5CC5)cc4)n3)cc2)CC1 [II-51, 5-Chloro-N4[4-(N-cyclopropylsulfonylamino)ethylphenyl]-N2-[4-(4-methylpiperazino)phenyl]-2,4-pyrimidinediamine] |
| 5.21 | Cc1cc(N2CCN(C)CC2)ccc1Nc1ncc(Cl)c(Nc2ccc(CCNS(=O)(=O)C3CC3)cc2)n1 [II-52, 5-Chloro-N4[4-(N-cyclopropylsulfonylamino)ethylphenyl]-N2-[4-(4-methylpiperazino)-2-methylphenyl]-2,4-pyrimidinediamine] |
| 5.70 | CN1CCN(c2ccc(Nc3ncc(Cl)c(Nc4ccc(CCNS(=O)(=O)C5CC5)cc4)n3)cn2)CC1 [II-53, 5-Chloro-N4[4-(N-cyclopropylsulfonylamino)ethylphenyl]-N2-[4-(4-methylpiperazino)pyrido]-2,4-pyrimidinediamine] |
| 5.70 | CCCN1CCN(c2ccc(Nc3ncc(Cl)c(Nc4ccc(CCNS(=O)(=O)C5CC5)cc4)n3)c(C(F)(F)F)c2)CC1 [II-54, 5-Chloro-N4[4-(N-cyclopropylsulfonylamino)ethylphenyl]-N2-[4-(4-propylpiperazino)-2-trifluoromethylphenyl]-2,4-pyrimidinediamine] |
| 5.05 | CS(=O)(=O)N1CCN(c2ccc(Nc3ncc(Cl)c(Nc4ccc(CCNS(=O)(=O)C5CC5)cc4)n3)c(C(F)(F)F)c2)CC1 [II-55, 5-Chloro-N4[4-(N-cyclopropylsulfonylamino)ethylphenyl]-N2-[4-(4-methylsulfonylpiperazino)-2-trifluoromethylphenyl]-2,4-pyrimidinediamine] |
| 6.19 | CN1CCN(c2ccc(Nc3ncc(Cl)c(Nc4ccc(CCNS(=O)(=O)C5CC5)cc4)n3)c(F)c2)CC1 [II-56, 5-Chloro-N4[4-(N-cyclopropylsulfonylamino)ethylphenyl]-N2-[4-(4-methylpiperazino)-2-fluorophenyl]-2,4-pyrimidinediamine] |
| 5.77 | CCN1CCN(c2ccc(Nc3ncc(Cl)c(Nc4ccc(CCNS(=O)(=O)C5CC5)cc4)n3)c(C(F)(F)F)c2)CC1 [II-57, 5-Chloro-N4[4-(N-cyclopropylsulfonylamino)ethylphenyl]-N2-[4-(4-ethylpiperazino)-2-trifluoromethylphenyl]-2,4-pyrimidinediamine] |
| 5.50 | Cc1cnc(Nc2ccc(S(=O)(=O)C(F)(F)F)cc2)nc1Nc1ccc(CCNS(=O)(=O)C2CC2)cc1 [II-59] |
| 6.41 | Cc1cnc(Nc2ccc(N3CCN(C4CC5CCC4C5)CC3)cc2)nc1Nc1ccc(CNS(=O)(=O)C2CC2)cc1 (stereo not shown) [II-60, N-(4-(2-(4-(4-(bicyclo[2.2.1]heptan-2-yl)piperazin-1-yl)phenylamino)-5-methylpyrimidin-4-ylamino)benzyl)cyclopropanesulfonamide] |
| 6.36 | COc1cc(C)c(Nc2ncc(C)c(Nc3ccc(CCNS(=O)(=O)C4CC4)cc3)n2)c(C)c1 [II-62] |
| 6.28 | CCOc1cc(C)c(Nc2ncc(C)c(Nc3ccc(CCNS(=O)(=O)C4CC4)cc3)n2)c(C)c1 [II-63] |
| 6.26 | Cc1cnc(Nc2c(C)cc(OC(C)C)cc2C)nc1Nc1ccc(CCNS(=O)(=O)C2CC2)cc1 [II-64] |
| 6.14 | Cc1cnc(Nc2ccc(N3CCN(C)CC3)cc2)nc1Nc1ccc(CCNS(=O)(=O)C2CC2)cc1 [II-67] |
| 5.38 | Cc1cc(N2CCN(C)CC2)ccc1Nc1ncc(C)c(Nc2ccc(CCNS(=O)(=O)C3CC3)cc2)n1 [II-68] |
| 5.74 | Cc1cnc(Nc2ccc(N3CCN(C)CC3)nc2)nc1Nc1ccc(CCNS(=O)(=O)C2CC2)cc1 [II-69] |
| 5.86 | Cc1cnc(Nc2ccc(N3CCN(C)CC3)cc2C(F)(F)F)nc1Nc1ccc(CCNS(=O)(=O)C2CC2)cc1 [II-70] |
| 5.85 | CCCN1CCN(c2ccc(Nc3ncc(C)c(Nc4ccc(CCNS(=O)(=O)C5CC5)cc4)n3)c(C(F)(F)F)c2)CC1 [II-71] |
| 4.74 | Cc1cnc(Nc2ccc(N3CCN(S(C)(=O)=O)CC3)cc2C(F)(F)F)nc1Nc1ccc(CCNS(=O)(=O)C2CC2)cc1 [II-72] |
| 6.23 | Cc1cnc(Nc2ccc(N3CCN(C)CC3)cc2F)nc1Nc1ccc(CCNS(=O)(=O)C2CC2)cc1 [II-73] |
| 5.83 | CCN1CCN(c2ccc(Nc3ncc(C)c(Nc4ccc(CCNS(=O)(=O)C5CC5)cc4)n3)c(C(F)(F)F)c2)CC1 [II-74] |
| 6.43 | Cc1cnc(Nc2ccc(N3CCN(C4CC5CCC4C5)CC3)c(F)c2)nc1Nc1ccc(CNS(=O)(=O)C2CC2)cc1 (stereo not shown) [II-78, N-(4-(2-(4-(4-(bicyclo[2.2.1]heptan-2-yl)piperazin-1-yl)-3-fluorophenylamino)-5-methylpyrimidin-4-ylamino)benzyl)cyclopropanesulfonamide] |
